In US20240083857A1, “2-Methyl-Quinazolines” (Bayer Pharma Aktiengesellschaft, priority 2017, published 2024):
Like-named read-outs stand apart in the source and are kept apart here.

Experiments:
[1] = target: Epidermal Growth Factor Receptor (EGFR) (Homo sapiens (Human), UniProt P00533); experiment: EGFR kinase assay (TR-FRET); assay type: biochemical
Source text: EGFR inhibitory activity of compounds of the present invention was quantified employing the TR-FRET based EGFR assay as described in the following paragraphs.
Epidermal Growth Factor Receptor (EGFR) affinity purified from human carcinoma A431 cells (Sigma-Aldrich, #E3641) was used as kinase. As substrate for the kinase reaction the biotinylated peptide biotin-Ahx-[…] (SEQ ID NO 5) (C-terminus in amid form) was used which can be purchased e.g. form the company Biosyntan GmbH (Berlin-Buch, Germany).
For the assay 50 nL of a 100 fold concentrated solution of the test compound in DMSO was pipetted into a black low volume 384 well microtiter plate (Greiner Bio-One, Frickenhausen, Germany), 2 μL of a solution of EGFR in aqueous assay buffer [50 mM Hepes/HCl pH 7.0, 1 mM MgCl2, 5 mM MnCl2, 0.5 mM activated sodium ortho-vanadate, 0.005% (v/v) Tween-20]were added and the mixture was incubated for 15 min at 22° C. to allow pre-binding of the test compounds to the enzyme before the start of the kinase reaction. […] The concentration of EGFR was adjusted depending of the activity of the enzyme lot and was chosen appropriate to have the assay in the linear range, typical concentration were about 3 U/ml. The reaction was stopped by the addition of 5 μl of a solution of HTRF detection reagents (0.1 μM streptavidine-XL665 [Cis Biointernational] and 1 nM PT66-Tb-Cryptate, an terbium-cryptate labelled anti-phospho-tyrosine antibody from Cis Biointernational [instead of the PT66-Tb-cryptate PT66-Eu-Chelate from Perkin Elmer can also be used]) in an aqueous EDTA-solution (80 mM EDTA, 0.2% (w/v) bovine serum albumin in 50 mM HEPES pH 7.5).
The resulting mixture was incubated 1 h at 22° C. to allow the binding of the biotinylated phosphorylated peptide to the streptavidine-XL665 and the PT66-Eu-Chelate. Subsequently the amount of phosphorylated substrate was evaluated by measurement of the resonance energy transfer from the PT66-Tb-Cryptate to the streptavidine-XL665. Therefore, the fluorescence emissions at 620 nm and 665 nm after excitation at 337 nm were measured in a HTRF reader, e.g. a Pherastar (BMG Labtechnologies, Offenburg, Germany) or a Viewlux (Perkin-Elmer). The ratio of the emissions at 665 nm and at […] was taken as the measure for the amount of phosphorylated substrate.

[2] = target: human SOS1 (loading of human K-Ras^G12C-GDP with fluorescent GTP-analog) (Homo sapiens, UniProt Q07889); experiment: Biochemical assay 3: K-Ras^G12C activation assay by hSOS1 (HTRF)
[3] = target: human SOS1 (nucleotide exchange of K-Ras^G12C) (Homo sapiens, UniProt Q07889); experiment: Biochemical assay 2: K-Ras^G12C activation assay by hSOS1 at high GTP concentration (HTRF)
[4] = target: K-Ras^G12C : hSOS1 interaction (Homo sapiens, UniProt Q07889); experiment: Biochemical assay 1: K-Ras^G12C interaction assay with hSOS1 (HTRF); assay type: binding
[5] = values given in μM, read-out: EGFR kinase inhibition IC50
[6] = no GTP, read-out: Assay 3 (KRAS-Activation by SOS no GTP) activity expressed as IC50
[7] = high GTP, read-out: Assay 2 (KRAS-Activation by SOS high GTP) activity expressed as IC50
[8] = read-out: Assay 1 (KRAS-SOS Interaction) activity expressed as IC50
[9] = in μM, read-out: EGFR-assay IC50
[10] = E-notation values, unit inferred, read-out: Assay 3 (KRAS-Activation) IC50
[11] = E-notation values, unit inferred, 50 μM GTP, read-out: Assay 2 (KRAS-Activation, high GTP) IC50
[12] = E-notation values, unit inferred, read-out: Assay 1 (KRAS-SOS interaction) IC50
[13] = E-notation values, unit inferred, read-out: EGFR-assay IC50

Sequence of Epidermal Growth Factor Receptor (EGFR) (P00533 25-1210): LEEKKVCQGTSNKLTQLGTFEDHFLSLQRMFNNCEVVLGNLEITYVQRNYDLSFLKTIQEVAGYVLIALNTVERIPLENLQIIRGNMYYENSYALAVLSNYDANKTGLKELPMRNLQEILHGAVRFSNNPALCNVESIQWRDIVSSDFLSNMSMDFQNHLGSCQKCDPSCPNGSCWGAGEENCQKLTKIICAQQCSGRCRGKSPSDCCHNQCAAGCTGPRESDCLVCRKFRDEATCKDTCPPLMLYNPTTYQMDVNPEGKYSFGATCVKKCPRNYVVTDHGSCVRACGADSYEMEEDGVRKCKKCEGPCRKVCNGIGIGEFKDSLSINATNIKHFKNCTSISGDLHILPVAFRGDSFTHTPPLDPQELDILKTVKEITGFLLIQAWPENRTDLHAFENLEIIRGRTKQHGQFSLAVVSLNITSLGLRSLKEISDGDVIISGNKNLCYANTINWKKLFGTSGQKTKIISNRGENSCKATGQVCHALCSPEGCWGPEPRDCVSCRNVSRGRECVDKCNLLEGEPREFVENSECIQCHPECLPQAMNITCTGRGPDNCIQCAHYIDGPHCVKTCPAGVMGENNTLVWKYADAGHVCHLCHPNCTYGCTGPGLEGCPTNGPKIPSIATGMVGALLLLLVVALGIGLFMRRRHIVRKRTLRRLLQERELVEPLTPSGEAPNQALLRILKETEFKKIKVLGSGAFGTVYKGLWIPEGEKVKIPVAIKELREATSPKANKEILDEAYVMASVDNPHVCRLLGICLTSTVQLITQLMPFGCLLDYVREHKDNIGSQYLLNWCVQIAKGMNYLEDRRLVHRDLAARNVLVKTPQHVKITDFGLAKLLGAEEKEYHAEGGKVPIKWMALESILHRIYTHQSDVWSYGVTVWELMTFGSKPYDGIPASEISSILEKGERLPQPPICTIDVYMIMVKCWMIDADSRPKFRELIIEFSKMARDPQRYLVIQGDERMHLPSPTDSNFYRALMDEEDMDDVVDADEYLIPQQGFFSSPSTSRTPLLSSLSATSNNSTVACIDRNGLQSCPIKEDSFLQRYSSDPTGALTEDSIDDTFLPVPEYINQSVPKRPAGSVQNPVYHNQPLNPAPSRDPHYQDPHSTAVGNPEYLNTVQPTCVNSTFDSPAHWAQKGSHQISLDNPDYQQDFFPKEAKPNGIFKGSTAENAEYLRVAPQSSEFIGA

| SMILES | IC50 [2, 10] [µM] | IC50 [3, 11] [µM] | IC50 [1, 13] [µM] | other results |
| --- | --- | --- | --- | --- |
| CNCc1ccccc1-c1csc(C(C)Nc2nc(C)nc3cc(OC)c(OC)cc23)c1 (single isomer, unassigned; enantiomer 1) [Example 326, 6,7-dimethoxy-2-methyl-N-[1-(4-{2-[(methylamino)methyl]phenyl}thiophen-2-yl)ethyl]quinazolin-4-amine, Enantiomer 1] |  |  |  | IC50 [1, 5]: > 20 µM |
| CNCc1ccccc1-c1csc(C(C)Nc2nc(C)nc3cc(OC)c(OC)cc23)c1 (single isomer, unassigned; enantiomer 2) [Example 327, 6,7-dimethoxy-2-methyl-N-[1-(4-{2-[(methylamino)methyl]phenyl}thiophen-2-yl)ethyl]quinazolin-4-amine, Enantiomer 2] |  |  |  | IC50 [1, 5]: > 20 µM |
| COc1cc2nc(C)nc(N[C@H](C)c3cccc4ccccc34)c2cc1OC [Example 1, 6,7-dimethoxy-2-methyl-N-[(1R)-1-(naphthalen-1-yl)ethyl]quinazolin-4-amine] |  |  |  | IC50 [1, 5]: > 20 µM |
| CNCc1ccccc1-c1csc(C(C)Nc2nc(C)nc3cc(OC)c(OC)cc23)c1 (centres unmarked) [Example 271, 6,7-dimethoxy-2-methyl-N-[1-(4-{2-[(methylamino)methyl]phenyl}thiophen-2-yl)ethyl]quinazolin-4-amine] |  |  |  | IC50 [1, 5]: > 20 µM |
| COc1cc2nc(C)nc(NC(C)c3ccc(-c4ccccc4CNCC(=O)NCc4ccccc4)s3)c2cc1OC (centres unmarked) [Example 284, N-benzyl-2-[2-(5-{1-[(6,7-dimethoxy-2-methylquinazolin-4-yl)amino]ethyl}thiophen-2-yl)benzyl]glycinamide] |  |  |  | IC50 [2, 6]: 0.889 µM; IC50 [3, 7]: 0.879 µM; IC50 [4, 8]: 1.06 µM |
| COc1cc2nc(C)nc(NC(C)c3ccc(-c4ccccc4CNCC(=O)Nc4ccccc4)s3)c2cc1OC (centres unmarked) [Example 289, 2-[2-(5-{1-[(6,7-dimethoxy-2-methylquinazolin-4-yl)amino]ethyl}thiophen-2-yl)benzyl]-N-phenylglycinamide] |  |  |  | IC50 [2, 6]: 2.73 µM; IC50 [3, 7]: 1.18 µM; IC50 [4, 8]: 2.11 µM |
| COc1cc2nc(C)nc(N[C@H](C)c3cccc(-c4c[nH]cn4)c3)c2cc1OC [Example 342, N-{(1R)-1-[3-(1H-imidazol-4-yl)phenyl]ethyl}-6,7-dimethoxy-2-methylquinazolin-4-amine] |  |  |  | IC50 [2, 6]: 1.13 µM; IC50 [3, 7]: 0.993 µM; IC50 [1, 5]: > 20 µM |
| COc1cc2nc(C)nc(NC(C)c3cccs3)c2cc1OC (centres unmarked) [Example 347, 6,7-dimethoxy-2-methyl-N-[1-(thiophen-2-yl)ethyl]quinazolin-4-amine] |  |  |  | inhibition at 20 µM ([2]; read-out: Assay 3 (KRAS-Activation by SOS no GTP) activity expressed as % inhibition at 20 μM, no GTP, at 20 μM): 48%; IC50 [3, 7]: 9.05 µM; IC50 [4, 8]: 15.6 µM |
| COc1cc2nc(C)nc(NC(C)c3ccc(-c4ccccc4-c4nnn[nH]4)s3)c2cc1OC (centres unmarked) [Example 368, 6,7-dimethoxy-2-methyl-N-[1-{5-[2-(1H-tetrazol-5-yl)phenyl]thiophen-2-yl}ethyl]-quinazolin-4-amine] |  |  |  | IC50 [1, 9]: > 20 µM |
| Cc1nc(N[C@H](C)c2cccc(Cl)c2)c2cc(C(=O)O)ccc2n1 [Example 372, 4-{[(1R)-1-(3-chlorophenyl)ethyl]amino}-2-methylquinazoline-6-carboxylic acid] |  |  |  | IC50 [1, 9]: > 20 µM |
| COc1cc2nc(C)nc(NC(C)c3ccc(-c4ccccc4C(O)CCc4ccccc4)s3)c2cc1OC (centres unmarked) [Example 375, 1-[2-(5-{1-[(6,7-dimethoxy-2-methylquinazolin-4-yl)amino]ethyl}thiophen-2-yl)phenyl]-3-phenylpropan-1-ol] |  |  |  | IC50 [1, 9]: > 20 µM |
| COc1cc2nc(C)nc(NC(C)c3ccc(-c4ccc(Br)cc4CN(C)C)s3)c2cc1OC (centres unmarked) [Example 384, N-(1-(5-(4-bromo-2-((dimethylamino)methyl)phenyl)thiophen-2-yl)ethyl)-6,7-dimethoxy-2-methylquinazolin-4-amine] | 0.0846 | 0.0665 |  | IC50 [4, 12]: 0.123 µM |
| COc1cc2nc(C)nc(NC(C)c3ccc(-c4ccc(C(F)(F)F)cc4CN(C)C)s3)c2cc1OC (centres unmarked) [Example 385, N-(1-(5-(2-((dimethylamino)methyl)-4-(trifluoromethyl)phenyl)thiophen-2-yl)ethyl)-6,7-dimethoxy-2-methylquinazolin-4-amine] | 0.388 | 0.329 |  | IC50 [4, 12]: 0.732 µM |
| COc1cc2nc(C)nc(NC(C)c3ccc(-c4ccc(C(F)(F)F)cc4C)s3)c2cc1OC (centres unmarked) [Example 386, 6,7-di methoxy-2-methyl-N-(1-{5-[2-methyl-4-(trifluoromethyl)phenyl]-2-thienyl}ethyl)quinazolin-4-amine] | 10.1 | 3.66 |  | IC50 [4, 12]: 8.77 µM |
| Cc1nc(NC(C)c2ccc(-c3ccccc3CN(C)C)s2)c2cc(N3CCCC3)ccc2n1 (centres unmarked) [Example 415, N-[1-(5-{2-[(dimethylamino)methyl]phenyl}thiophen-2-yl)ethyl]-2-methyl-6-(pyrrolidin-1-yl)quinazolin-4-amine] | 0.0942 | 0.0885 |  | IC50 [4, 12]: 0.115 µM |
| COc1cc2nc(C)nc(NC(C)c3csc(C)n3)c2cc1OC (centres unmarked) [Example 444] | > 20 | > 20 | > 20 |  |
| COc1cc2nc(C)nc(NC(C)c3nc(C)cs3)c2cc1OC (centres unmarked) [Example 445, 6,7-dimethoxy-2-methyl-N-[1-(4-methyl-1,3-thiazol-2-yl)ethyl]quinazolin-4-amine] | > 20 | > 20 | > 20 |  |
| COc1cc2nc(C)nc(NC(C)c3ccc(-c4cc(C(=O)O)n(C)n4)s3)c2cc1OC (centres unmarked) [Example 446, 3-(5-{1-[(6,7-dimethoxy-2-methylquinazolin-4-yl)amino]ethyl}thiophen-2-yl)-1-methyl-1H-pyrazole-5-carboxylic acid] | > 20 | > 20 | > 20 |  |
| COc1cc2nc(C)nc(NC(C)c3ccc(-c4ccc(CNC(=O)OC(C)(C)C)s4)s3)c2cc1OC (centres unmarked) [Example 447, tert-butyl [(5′-{1-[(6,7-dimethoxy-2-methylquinazolin-4-yl)amino]ethyl}-2,2′-bithiophen-5-yl)methyl]carbamate] | > 20 | > 20 | > 20 |  |
| COc1cc2nc(C)nc(N[C@H](C)c3cccc(-c4cn[nH]c4)c3)c2cc1OCCS(C)(=O)=O [Example 448, 7-methoxy-2-methyl-6-[2-(methylsulfonyl)ethoxy]-N-{(1R)-1-[3-(1H-pyrazol-4-yl)phenyl]ethyl}quinazolin-4-amine] | > 20 | > 20 | > 20 |  |
| COc1cc2nc(C)nc(NC(C)c3ccc(-c4ccc(Cl)cc4CNC(=O)OC(C)(C)C)s3)c2cc1OC (centres unmarked) [Example 449, tert-butyl [5-chloro-2-(5-{1-[(6,7-dimethoxy-2-methylquinazolin-4-yl)amino]ethyl}thiophen-2-yl)benzyl]carbamate] | > 20 | > 20 | > 20 |  |
| COc1cc2nc(C)nc(NC(C)c3ccc(-c4cccc(Cl)c4CNC(=O)OC(C)(C)C)s3)c2cc1OC (centres unmarked) [Example 450, tert-butyl [2-chloro-6-(5-{1-[(6,7-dimethoxy-2-methylquinazolin-4-yl)amino]ethyl}-thiophen-2-yl)benzyl]carbamate] | > 20 | > 20 | > 20 |  |
| Cc1nc(N[C@H](C)c2cccc(Cl)c2)c2ccc(Br)cc2n1 [Example 451, 7-bromo-N-[(1R)-1-(3-chlorophenyl)ethyl]-2-methylquinazolin-4-amine] | > 20 | > 20 | > 20 |  |
| COc1cc2ncnc(N[C@H](C)c3cccc4ccccc34)c2cc1OC [Reference compound, 6,7-dimethoxy-N-[(1R)-1-(1-naphthyl)ethyl]quinazolin-4-amine, reference compound] |  |  |  | IC50 ([1]; unit inferred, read-out: EGFR kinase inhibition IC50): 0.553 µM |
